Reference: patent publication US8343475B2, “Small cationic antimicrobial peptides” (priority 2006, dated 2013)
Values after ≈ are worked out from the molar mass of the structure shown. Residues, ends and D or L forms follow the SMILES beside them.

What was measured:
[1] = tested on: Pseudomonas aeruginosa PAO1 strain H103; assay type: cell-based; details: for MIC: PAO1; for antimicrobial activity against P. aeruginosa PAO1 (in words): laboratory strain P. aeruginosa PAO1
Method: The biological activity of the peptides can be determined by standard methods known to those of skill in the art, such as “minimal inhibitory concentration (MIC)” assay described in the present examples, whereby the lowest concentration at which no change in OD is observed for a given period of time is recorded as MIC.
Minimal inhibitory concentration (MIC) determination. The MIC of the peptides were measured using a modified broth microdilution method in Mueller Hinton (MH) medium (Wu M, Hancock R E W. 1999. Interaction of the cyclic antimicrobial cationic peptide bactenecin with the outer and cytoplasmic membrane. J Biol Chem 274, 29-35). Briefly, the peptides were dissolved and stored in glass vials. The assay was performed in sterile 96-well polypropylene microtitre plates were used. Serial dilutions of the peptides to be assayed were performed in 0.01% acetic acid (Fisher) containing 0.2% bovine serum albumin (Boehringer Mannheim GmbH) at 10× the desired final concentration. Ten microlitres of the 10× peptides were added to each well of a 96-well polypropylene plate containing 90 μl of MH media per well. Bacteria were added to the plate from an overnight culture at 2-7×10^5 colony forming units/ml and incubated over night at 37° C. The MIC was taken as the concentration at which no growth was observed.
(§1) Strains. For the killing assay a mini-Tn5-lux mutant in Pseudomonas aeruginosa H103 was used. The strain is called H1001 and contains a fliC::luxCDABE transcriptional fusion resulting in constitutive expression of luciferase. The bacterial strains used for the antimicrobial activity assays included Escherichia coli UB1005 (F-, nalA37, metB1), a wild-type Salmonella enterica ssp. typhimurium (S. typhimurium), wild-type Pseudomonas aeruginosa PAO1 strain H103, Enterococcus faecalis ATCC29212, Staphylococcus aureus ATCC25923, and a clinical isolate of Staphylococcus epidermidis obtained from Dr. D. Speert (Department of Medicine, University of British Columbia). Antifungal activity was tested using a lab isolate of Candida albicans obtained from Dr. B. Dill (Department of Microbiology and Immunology, University of British Columbia).

[2] = tested on: Pseudomonas aeruginosa strain H1001 fliC::luxCDABE; assay: Luminescence (lux) killing assay, peptides cleaved from cellulose support; assay type: cell-based; parameters: key: − for minimal or no activity; + for weak activity; +/++ for intermediate activity; ++ strong activity; details: P. aeruginosa strain H1001, 4 hours incubation, luminescence as indicator
Method: Assay for the cleaved peptides from cellulose support. The peptides were cleaved from the dried membrane in an ammonia atmosphere overnight, resulting in free peptides with an amidated C-terminus. The free peptides contained two β-alanines at the C-terminus, in addition to being amidated due to the linker between the cellulose membrane and the peptide sequence. The peptide spots were punched out and transferred in a 96-well microtiter plate. Serial dilutions were carried out from the membrane spots. Four rows were filled with four controls including 2×Bac2A and 2× an unrelated peptide. The other eight rows were used for serial dilution steps of the peptide variants. An overnight culture of Pseudomonas aeruginosa strain H1001 was diluted 1:500 using either LB media or 100 mM Tris buffer pH 7.3, 20 mM glucose and was added to the wells (100 μl/well) containing the peptide spots. In all other wells 50 μl were added. The microtiter plate was incubated for 30 min at 37° C. to release the peptides from the membrane. Subsequently, a dilution series were performed and the plate was incubated at 37° C. The luminescence produced by the FMN dependent luciferase system were detected in a time dependent manner using a Tecan Spectra Fluor plus.
as §1
Peptide synthesis on cellulose is a very effective and inexpensive way to investigate many different peptide variants for one particular activity. However, one of the problems of this technique is the low peptide amount synthesized on the membrane, about 280 nmol per cm^2. An average peptide spot used for the experiments presented is about 0.3 cm^2. Therefore, an assay had to be developed that was sensitive enough to show activity with this amount of peptides. P. aeruginosa H1001 has a luciferase gene cassette incorporated into the bacterial chromosome in a gene fliC (involved in flagellar biosynthesis) that is constitutively expressed. It will thus produce light if FMN is present. When this strain is killed, e.g. by peptides, the amount of light produced will decrease due to a decrease in FMN levels in the killed cells. This action can thus be monitored by detecting luminescence in a microtiter plate luminescence reader over time. The volume and amount of cells per well were optimized for this assay. After screening, we were able to monitor the killing action with small amounts of the parent peptide Bac2A (2 μg/ml of free peptide).

MIC [1] [µM] | Molecule | antimicrobial activity against P. aeruginosa PAO1 (in words) [1] | Antimicrobial activity [2]
506 (≈ 565 µg/mL) | CSCC[C@H](NC(=O)[C@H](CCCNC(=N)N)NC(=O)[C@H](Cc1c[nH]cn1)NC(=O)[C@H](CCCNC(=N)N)NC(=O)[C@H](CO)NC(=O)CNC(=O)[C@H](CCCNC(=N)N)NC(=O)[C@H](Cc1ccccc1)NC(=O)[C@H](C)N)C(N)=O [HHC152, AFRGSRHRM] (H-AFRGSRHRM-NH2; N-terminus assumed) | did not posses any antimicrobial activity | 
360 (≈ 386 µg/mL) | CSCC[C@H](NC(=O)CNC(=O)[C@H](Cc1c[nH]c2ccccc12)NC(=O)[C@H](CCCNC(=N)N)NC(=O)[C@H](CCCNC(=N)N)NC(=O)CN)C(=O)NCC(=O)N[C@H](C(=O)N[C@@H](CCCNC(=N)N)C(N)=O)C(C)C [HHC183, GRRWGMGVR] (H-GRRWGMGVR-NH2; N-terminus assumed) | did not posses any antimicrobial activity | 
381 (≈ 436 µg/mL) | CC(C)C[C@H](NC(=O)CNC(=O)[C@H](CCCCN)NC(=O)[C@H](CC(N)=O)NC(=O)[C@H](CCCNC(=N)N)NC(=O)[C@@H](N)CCC(N)=O)C(=O)N[C@@H](CCCNC(=N)N)C(=O)N[C@@H](Cc1c[nH]cn1)C(=O)N[C@@H](Cc1c[nH]cn1)C(N)=O [HHC186, QRNKGLRHH] (H-QRNKGLRHH-NH2; N-terminus assumed) | did not posses any antimicrobial activity | 
379 (≈ 423 µg/mL) | CC[C@H](C)[C@H](NC(=O)[C@H](CCC(N)=O)NC(=O)[C@H](CCCNC(=N)N)NC(=O)[C@H](CCCNC(=N)N)NC(=O)CNC(=O)[C@@H](N)CCCNC(=N)N)C(=O)NCC(=O)N[C@@H](CCCCN)C(=O)N[C@@H](Cc1ccccc1)C(N)=O [HHC189, RGRRQIGKF] (H-RGRRQIGKF-NH2; N-terminus assumed) | did not posses any antimicrobial activity | 
413 (≈ 407 µg/mL) | CC(C)[C@H](NC(=O)CNC(=O)[C@@H](NC(=O)[C@H](CCCNC(=N)N)NC(=O)[C@H](CCCCN)NC(=O)[C@H](CO)NC(=O)[C@H](C)N)C(C)C)C(=O)N[C@@H](CCCNC(=N)N)C(=O)N[C@@H](CC(N)=O)C(N)=O [HHC190, ASKRVGVRN] (H-ASKRVGVRN-NH2; N-terminus assumed) | did not posses any antimicrobial activity | 
 | KFFKFKK [HH1009] |  | −
 | KFHWWIWRK [HH988] |  | ++
 | KFHWWKWRK [HH989] |  | ++
 | KFKFFKFRK [HH992] |  | +
 | KFKFFKYRK [HH991] |  | +
 | KFKWWKYRK [HH990] |  | ++
 | KFPWWPWRR [HH976] |  | +
 | KFRWWKWRR [HH985] |  | ++
 | KFRWWPWRR [HH984] |  | ++
 | KKKWWKWRR [HH987] |  | ++
 | KKPWWPWRR [HH977] |  | +
 | KWPKWPWRR [HH979] |  | +
 | KWPWKPWRR [HH980] |  | +
 | KWPWWKWRR [HH981] |  | ++
 | KWPWWPKRR [HH982] |  | +
 | KWPWWPWRK [HH975] |  | +
 | KWPWWPWRR [HH983] |  | +/++
